Data taken from US20080039482A1, “SULFONAMIDO-MACROCYCLES AS TIE2 INHIBITORS AND SALTS THEREOF, PHARMACEUTICAL COMPOSITIONS COMPRISING SAME, METHODS OF PREPARING SAME AND USES OF SAME” (priority 2006, published 2008).

Key:
Aurora-C = target: T1, Aurora-C (Homo sapiens, UniProt Q9UQB9); test: Aurora C HTRF assay (assay 5); format: biochemical; conditions: IC50 assay 5/IC50 assay 2
T1 construct: GST; made in house; host or cells: HEK293 (the text adds '(Sf9)', which contradicts this)
T1 sequence (Q9UQB9 1-309): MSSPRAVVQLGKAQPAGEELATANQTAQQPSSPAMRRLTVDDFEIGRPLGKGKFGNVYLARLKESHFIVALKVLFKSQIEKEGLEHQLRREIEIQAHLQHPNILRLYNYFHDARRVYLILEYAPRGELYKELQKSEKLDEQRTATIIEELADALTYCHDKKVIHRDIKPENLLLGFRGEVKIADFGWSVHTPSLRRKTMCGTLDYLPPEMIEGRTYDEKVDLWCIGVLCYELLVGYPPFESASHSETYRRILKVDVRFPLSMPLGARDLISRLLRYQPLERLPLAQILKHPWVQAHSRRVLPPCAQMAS
From the text: Assay 5: Aurora C HTRF Assay
Aurora-C inhibitory activity of compounds of the present invention was quantified employing the Aurora-C HTRF assay as described in the following paragraphs.
Recombinant fusion protein of GST and human Aurora-C was expressed in transiently transfected HEK293 cells (Sf9) and purified by Glutathion-Sepharose affinity chromatography. As substrate for the kinase reaction biotinylated peptide biotin-Ttds-FMRLRRLSTKYRT (C-terminus in amid form) was used which can be purchased e.g. form the company JERINI peptide technologies (Berlin, Germany). Aurora-C was incubated for 60 min at 22° C. in the presence of different concentrations of test compounds in 5 μl assay buffer [25 mM Hepes/NaOH pH 7.4, 0.5 mM MnCl2, 2.0 mM dithiothreitol, 0.1 mM sodium ortho-vanadate, 10 μM adenosine-tri-phosphate (ATP), […] substrate, 0.01% (v/v) TritonX-100 (Sigma), 0.05% (w/v) bovine serum albumin, 1% (v/v) dimethylsulfoxide]. The concentration of Aurora-C was adjusted depending of the activity of the enzyme lot and was chosen appropriate to have the assay in the linear range, typical concentrations were in the range of 0.3 nM. The reaction was stopped by the addition of 5 μl of a solution of HTRF detection reagents (0.2 μM streptavidine-XLent and 1.4 nM Anti-Phospho-(Ser/Thr) Akt substrate-Cryptate (Cis biointernational, France, product no. 61P02KAE), a labeled Phospho-(Ser/Thr) Akt substrate antibody [product #9611B, Cell Signalling Technology, Danvers, Mass., USA] labeled with Europium Cryptate, in an aqueous EDTA-solution (40 mM EDTA, 400 mM KF, 0.05% (w/v) bovine serum albumin in 25 mM HEPES/NaOH pH 7.0).
The resulting mixture was incubated 1 h at 22° C. to allow the binding of the biotinylated phosphorylated peptide to the streptavidine-XLent and the Anti-Phospho-(Ser/Thr) Akt substrate-Cryptate. Subsequently the amount of phosphorylated substrate was evaluated by measurement of the resonance energy transfer from the Prot-A-EuK to the streptavidine-XLent. Therefore, the fluorescence emissions at 620 nm and 665 nm after excitation at 350 nm was measured in a HTRF reader, e.g. a Rubystar (BMG Labtechnologies, Offenburg, Germany) or a Viewlux (Perkin-Elmer). The ratio of the emissions at 665 nm and at […] was taken as the measure for the amount of phosphorylated substrate. The data were normalised (enzyme reaction without inhibitor=0% inhibition, all other assay components but no enzyme=100% inhibition) and IC50 values were calculated by a 4 parameter fit using an inhouse software.

CDK2/CycE = target: T2, CDK2/CycE (Homo sapiens, UniProt P24941); test: CDK2 HTRF assay (assay 4); format: biochemical; conditions: IC50 assay 4/IC50 assay 2
T2 construct: GST; purchased ProQinase GmbH (Freiburg, Germany); host or cells: insect cells (Sf9)
From the text: CDK2/CycE-inhibitory activity of compounds of the present invention was quantified employing the CDK2/CycE HTRF assay as described in the following paragraphs.
Recombinant fusion proteins of GST and human CDK2 and of GST and human CycE, expressed in insect cells (Sf9) and purified by Glutathion-Sepharose affinity chromatography, were purchase from ProQinase GmbH (Freiburg, Germany). As substrate for the kinase reaction biotinylated peptide biotin-Ttds-YISPLKSPYKISEG (C-terminus in amid form) was used which can be purchased e.g. form the company JERINI peptide technologies (Berlin, Germany).
CDK2/CycE was incubated for 60 min at 22° C. in the presence of different concentrations of test compounds in 5 μl assay buffer [50 mM Tris/HCl pH 8.0, 10 mM MgCl2, 1.0 mM dithiothreitol, 0.1 mM sodium ortho-vanadate, 10 μM adenosine-tri-phosphate (ATP), 0.75 μM substrate, 0.01% (v/v) Nonidet-P40 (Sigma), 1% (v/v) dimethylsulfoxide]. The concentration of CDK2/CycE was adjusted depending of the activity of the enzyme lot and was chosen appropriate to have the assay in the linear range, typical concentrations were in the range of 1 ng/ml. The reaction was stopped by the addition of 5 μl of a solution of HTRF detection reagents (0.2 μM streptavidine-XLent and 3.4 nM Phospho-(Ser) CDKs Substrate Antibody [product #2324B, Cell Signalling Technology, Danvers, Mass., USA} and 4 nM Prot-A-EuK [Protein A labeled with Europium Cryptate from Cis biointernational, France, product no. 61PRAKLB]) in an aqueous EDTA-solution (100 mM EDTA, 800 mM KF, 0.2% (w/v) bovine serum albumin in 100 mM HEPES/NaOH pH 7.0).

SMILES	Selectivity vs. Aurora C (Aurora-C) [fold]	Selectivity vs. CDK2 (CDK2/CycE) [fold]
O=C(Nc1ccc(-c2cnc3nc2NCCCNS(=O)(=O)c2cccc(c2)N3)cc1)C1(c2cccc(Cl)c2)CC1 [Example 5, 1-(3-Chloro-phenyl)-cyclopropane-arboxylic acid [4-(13,13-dioxo-13λ^6-thia-2,4,8,12,19-pentaaza-tricyclo[12.3.1.1^3,7]-nadeca-1(18),3(19),4,6,14,16-hexaen-6-yl)-phenyl]-amide]	>20	>20
O=C(Nc1ccc(-c2cnc3nc2NCCCNS(=O)(=O)c2cccc(c2)N3)cc1)C1(c2cc(C(F)(F)F)ccc2F)CC1 [Example 12, 1-(2-Fluoro-5-trifluoromethyl-phenyl)-cyclopropane-carboxylic acid [4-(13,13-dioxo-13λ^6-thia-2,4,8,12,19-pentaaza-tricyclo[12.3.1.1^3,7]-nonadeca-1(18),3(19),4,6,14,16-hexaen-6-yl)-phenyl]-amide]	>20	>20
O=C(Nc1ccc(-c2cnc3nc2NCCCNS(=O)(=O)c2cccc(c2)N3)cc1)C1(c2cccc(F)c2)CC1 [Example 8, 1-(3-Fluoro-phenyl)-cyclopropane-carboxylic acid [4-(13,13-dioxo-13λ^6-thia-2,4,8,12,19-pentaaza-tricyclo[12.3.1.1^3,7]nonadeca-1(18),3(19),4,6,14,16-hexaen-6-yl)-phenyl]-amide]	>20	>20
CC(C)(C(=O)Nc1ccc(-c2cnc3nc2NCCCNS(=O)(=O)c2cccc(c2)N3)cc1)c1ccc(Cl)cc1 [Example 13, 2-(4-Chloro-phenyl)-N-[4-(13,13-dioxo-13λ^6-thia-2,4,8,12,19-pentaaza-tricyclo[12.3.1.1^3,7]-nonadeca-1(18),3(19),4,6,14,16-hexaen-6-yl)-phenyl]-isobutyramide]	>20	>20
Cc1ccc(C2(C(=O)Nc3ccc(-c4cnc5nc4NCCCNS(=O)(=O)c4cccc(c4)N5)cc3)CC2)cc1 [Example 1, 1-p-Tolyl-cyclopropane-carboxylic acid [4-(13,13-dioxo-13λ^6-thia-2,4,8,12,19-pentaaza-tricyclo[12.3.1.1^3,7]nonadeca-1(18),3(19),4,6, 14,16-hexaen-6-yl)-phenyl]-amide]	>20	>20
COc1cccc(C2(C(=O)Nc3ccc(-c4cnc5nc4NCCCNS(=O)(=O)c4cccc(c4)N5)cc3)CC2)c1 [Example 3, 1-(3-Methoxy-phenyl)-cyclopropane-carboxylic acid [4-(13,13-dioxo-13λ^6-thia-2,4,8,12,19-pentaaza-tricyclo[12.3.1.1^3,7]nonadeca-1(18),3(19),4,6,14,16-hexaen-6-yl)-phenyl]-amide]	>20	>20
O=C(Nc1ccc(-c2cnc3nc2NCCCNS(=O)(=O)c2cccc(c2)N3)cc1)C1(c2ccc(Cl)cc2)CC1 [Example 6, 1-(4-Chloro-phenyl)-cyclopropane-carboxylic acid [4-(13,13-dioxo-13λ^6-thia-2,4,8,12,19-pentaaza-tricyclo[12.3.1.1^3,7]-nonadeca-1(18),3(19),4,6,14,16-hexaen-6-yl)-phenyl]-amide]	>20	>20
O=C(Nc1ccc(-c2cnc3nc2NCCCNS(=O)(=O)c2cccc(c2)N3)cc1)C1(c2ccc(F)cc2)CC1 [Example 9, 1-(4-Fluoro-phenyl)-cyclopropane-carboxylic acid [4-(13,13-dioxo-13λ^6-thia-2,4,8,12,19-pentaaza-tricyclo[12.3.1.1^3.7]nonadeca-1(18),3(19),4,6,14,16-hexaen-6-yl)-phenyl]-amide]	>20	>20
Cc1ccccc1C1(C(=O)Nc2ccc(-c3cnc4nc3NCCCNS(=O)(=O)c3cccc(c3)N4)cc2)CC1 [Example 2, 1-o-Tolyl-cyclopropane-arboxylic acid [4-(13,13-dioxo-13λ^6-thia-2,4,8,12,19-pentaaza-tricyclo[12.3.1.1^3,7]nonadeca-1(18),3(19),4,6,14,16-hexaen-6-yl)-phenyl]-amide]	>20	>20
COc1ccc(C2(C(=O)Nc3ccc(-c4cnc5nc4NCCCNS(=O)(=O)c4cccc(c4)N5)cc3)CC2)cc1 [Example 4, 1-(4-Methoxy-phenyl)-cyclopropane-carboxylic acid [4-(13,13-dioxo-13λ^6-thia-2,4,8,12,19-pentaaza-tricyclo[12.3.1.1^3,7]-nonadeca-1(18),3(19),4,6,14,16-hexaen-6-yl)-phenyl]-amide]	>20	>20
O=C(Nc1ccc(-c2cnc3nc2NCCCNS(=O)(=O)c2cccc(c2)N3)cc1)C1(c2ccccc2F)CC1 [Example 7, 1-(2-Fluoro-phenyl)-cyclopropane-carboxylic acid [4-(13,13-dioxo-13λ^6-thia-2,4,8,12,19-pentaaza-tricyclo[12.3.1.1^3,7]nonadeca-1(18),3(19),4,6,14,16-hexaen-6-yl)-phenyl]-amide]	>20	>20
O=C(Nc1ccc(-c2cnc3nc2NCCCNS(=O)(=O)c2cccc(c2)N3)cc1)C1(c2cccc(C(F)(F)F)c2)CC1 [Example 10, 1-(3-Trifluoromethyl-phenyl)-cyclopropane-carboxylic acid [4-(13,13-dioxo-13λ^6-thia-2,4,8,12,19-pentaaza-tricyclo[12.3.1.1^3,7]nonadeca-1(18),3(19),4,6,14,16-hexaen-6-yl)-phenyl]-amide]	>20	>20
O=C(Nc1ccc(-c2cnc3nc2NCCCNS(=O)(=O)c2cccc(c2)N3)cc1)C1(c2ccc(C(F)(F)F)cc2)CC1 [Example 11, 1-(4-Trifluoromethyl-phenyl)-cyclopropane-carboxylic acid [4-(13,13-dioxo-13λ^6-thia-2,4,8,12,19-pentaaza-tricyclo[12.3.1.1^3,7]nonadeca-1(18),3(19),4,6,14,16-hexaen-6-yl)-phenyl]-amide]	>20	>20
